# Data as given in US9062095B2, “Mutant double cyclized receptor peptides inhibiting β1-adrenoceptor antibodies” (JULIUS-MAXIMILIANS-UNIVERSTITAT-WURZBURG, priority 2007, dated 2015).
# Positions of bridges follow the written chain, without caps; N, C: chain ends. Non-standard residues stand in square brackets, D forms with d.
# Assays:
# anti-β1-ECII antibodies = test: ELISA-competition assay: peptide preincubated with sera/IgG of immunized antibody-positive rats, linear 25AA Cys/Cys-peptide as antigen; format: binding, rat; design: blocking capacity (% of blocked versus non-blocked ELISA-reactivity): concentration or dose not given beside the values; conditions: for blocking capacity (% of blocked versus non-blocked ELISA-reactivity): IgG from n=78 immunized antibody-positive rats, preincubation 12 h, mutants with D-Glu ring closure (FIG. 7); for blocking capacity (% of blocked versus non-blocked ELISA-reactivity) / blocking efficiency (% of blocked versus non-blocked ELISA reactivity) / blocking capacity (% of blocked versus non-blocked ELISA reactivity): ±SEM; for blocking efficiency (% of blocked versus non-blocked ELISA reactivity): type1 sera (93%, n=64 of 69), FIG. 9 upper panel; for blocking capacity (% of blocked versus non-blocked ELISA reactivity): type 2 sera (7%, n=5 of 69), FIG. 9 lower panel; for decrease in circulating free anti-beta1-ECII antibodies: n=6 sera (FIG. 11); for ability to significantly block antibody-binding to the β1-ECII-antigen: IgG-fractions from 12 rats, 18AA mutants with D-Glu ring closure (FIG. 4); for fraction of rat sera blocked by the peptide: n=82 sera, D-Glu ring closure (FIG. 8), Cys/Ser = blocked by it alone, Ser/Cys = sera blocked by both mutants
# Experimental: FIG. 9 is a diagram composed of two major-(upper and lower) panels resuming the blocking effect of both 25AA- and 18AA-cyclopeptide mutants having a Gln closure site, as well as 18AA cyclopeptide mutants having a D-Glu closure site after preincubation (12 h, 4° C., rotating incubation) with sera isolated from 69 different immunized antibody-positive rats in an ELISA-competition assay using the 3 Cys-containing linear 25AA Cys/Cys-peptide as an antigen. The upper panel depicts rat sera preferentially reacting with the Cys/Ser mutated cyclopeptides (type1 reaction, n=64), separated in cyc25AA(Gln)-peptides (left) and cyc18AA(Gln and D-Glu)-peptides (right). The lower panel depicts the rat sera reacting with both the Cys/Ser and the Ser/Cys mutated cyclopeptides (type2 reaction, n=5), again separated in the results obtained with cyc25AA(Gln)-peptides (left) and cyc18AA(Gln and D-Glu)-peptides (right).
# FIG. 11 is a diagram resuming the dose-dependent (x-axis, abscissa: fold molar excess of specific peptides) blocking capacity of various linear and cyclic beta1-ECII-peptides given in % of the unblocked antibody-titer (y-axis, ordinate), including 25AA Cys/Cys linear peptides (black squares), 25AA Cys/Ser cyclopeptide mutants (white squares), 18AA Cys/Cys cyclo-peptides (black diamonds), 18AA Cys/Ser cyclopeptide mutants (white diamonds), and 18AA Cys/Ser linear peptide mutants (vertically hatched diamonds) in an ELISA competition assay performed with sera from n=6 randomly chosen immunized antibody-positive rats.
# FIGS. 27A and B depict the in vitro blocking (=neutralization) capacity of various cysteine-containing cyclopeptide variants of the second extracellular loop (ECII) of the human beta1-adrenergic receptor, determined by testing n=6 individual sera (27A) of immunized beta1-ECII-antibody-positive rats after over-night incubation with the indicated cyclopeptides (12-14 h, 4° C.) by ELISA. Columns in 27A represent the receptor-antibody blocking efficiency of the indicated cyclopeptides in % of the antibody-(ELISA-)signals obtained with unblocked antibody-positive rat sera. Columns in 27B represent the mean blocking efficiency for each cyclopeptide, error bars indicate ±SEM.
# The blocking capacity of β1-ECII-18AA cyclopeptide mutants (Cys13-Ser14 or Ser13-Cys14 mutation having an additional D-Glu-Gln exchange, e.g. at the ring closure site) was compared with the 3 Cys-containing 25AA or 18AA Cys/Cys cyclopeptides after preincubation (12 h, 4° C., rotating incubation over-night) of different numbers of sera from immunized antibody-positive rats in an ELISA-competition assay using the 3 Cys-containing linear 25AA Cys/Cys-peptide as an antigen. FIGS. 4, 5, and 7-10 show the results from measurements performed with sera of n=12 up to n=82 immunized antibody-positive rats using different cyclopeptides of the present invention.
# [1] = tested on: beta1-receptor antibodies; test: in vivo prevention study: five prophylactic peptide applications, serum antibody-titers by ELISA; design: species or system rat; conditions: 1.0 mg/kg body weight i.v., 4-weekly, prevention protocol (FIG. 12)
# Experimental: FIG. 12 is a diagram resuming the in vivo blocking capacity of in total five (prophylatic) applications of various linear and cyclic beta1-ECII-peptides, started 3 months after the first immunization (and two subsequent beta1-ECII/GST-antigen-boosts, corresponding to a prevention protocol). Serum-titers of the beta1-receptor antibodies were determined before and 18-20 h after each peptide injection (abscissa, time in months) and are given in % of the corresponding antibody-titers of immunized untreated rats (y-axis, ordinate). The injected peptides were: 25AA Cys/Cys linear peptide (black squares), […] (white squares), 18AA Cys/Cys cyclopeptide (black diamond), 18AA Cys/Ser cyclopeptide mutant (white diamonds), and the 18AA Cys/Ser linear peptide mutant (vertically hatched diamonds). […] Black circles indicate antibody-titers of untreated regularly (every 4 weeks) immunized animals serving as reference, set at 100%.
# The in-vivo blocking effects of both 25AA and 18AA Cys/Ser mutant cyclopeptides (with a Gln closure site), the 18AA Ser/Cys mutant cyclopeptide, and a mutated linear 18AA Cys/Ser peptide were analyzed after intravenous (i.v.) injection of 1.0 mg/kg body weight (Bw) of each construct into freshly immunized antibody-positive rats (i.e., use of cyclo-peptides in a kind of “prevention” study), with a first cyclopeptide-application 3 months after the initial immunization (and two subsequent boost at months 2 and 3). In total, five prophylactic applications of the various constructs were given at 4-weekly intervals, always two weeks after the monthly continued antigen boost. Sera were drawn 18-20 hours after i.v. injection and assayed for reactivity by ELISA using the 3 Cys-containing linear 25AA Cys/Cys-peptide as an antigen (FIG. 12).
# [2] = tested on: anti-beta1-ECII antibody-secreting cells (ASC); test: ELISPOT-assay with B-cells from bone marrow or spleen of prophylactically treated rats; format: in vivo, rat; conditions: prophylactically treated versus untreated immunized rats, n=3-4 (FIG. 13)
# Experimental: Cys/Ser, horizontally hatched columns). For the assays, ELIspot plates were coated overnight with the specific antigen (GST/beta1-ECII-FP) in 0.05 mol/1 Tris buffer, pH 9.4.; then the plates were washed 3 times and blocked with BSA for 3 hours at 37° C. Subsequently, the plates were incubated overnight at 37° C. with B-cells from either spleen or bone marrow (cultured in RPMI 1640/X-VIVO-15 medium supplemented with 10% fetal calf serum (FCS)) with 1×10^6 to 1×10^3 cells per well. After 12 hours the B-cells were discarded and the plates with the B-cell secreted IgG bound were washed several times (PBS/0.5° A) Tween) before the addition of alkaline phos-phatase conjugated secondary anti-rat IgG (0.3 μg/ml) to detect bound rat IgG. Then the plates were incubated for another 3 hours at 37° C., washed several times with PBS/0.5% Tween, and developed using LMP/BICP 5:1 (1 ml per well; “LMP” means low melting agarose, and “BICP” means 5-bromo-4-chloro-3-indolyl phosphate p-toluidine salt, a blue-colored dye) allowing for a quantification of the blue spots obtained, with each spot representing an antigen-specific IgG secreting spleen or bone-marrow cell.
# This finding was confirmed by ELIspot analysis of bone marrow and spleen cell preparations of selected cyclopeptide-treated versus untreated immunized rats (n=3).
# [3] = tested on: antibody-induced cellular cAMP-production of HEK 293-β1 cells (β1-receptor-mediated signalling); test: functional cAMP-assay by fluorescence resonance energy transfer (FRET); format: cell-based, human; conditions: anti-β1-ECII IgG of a representative rat, preincubation 12 h, 4° C. (FIG. 6)
# Experimental: FIG. 6 is a diagram depicting the blocking capacity of β1-ECII-18AA cyclopeptide mutants having a D-Glu ring closure on β1-receptor-mediated signalling (functional cAMP-assay) using an approach by fluorescence resonance energy transfer (FRET). The effect of the preincubation (12 h, 4° C., rotating incubator) of anti-β1-ECII IgG antibodies of a representative rat (serum) (FIG. 4, rat number 4) with β1-ECII-18AA-cyclopeptide mutants (Cys/Ser mutation, dark blue (3); Ser/Cys mutation, light blue (4)) was compared with the effect of a 3 Cys-containing 25AA Cys/Cys cyclopeptide (red (2)) or the result obtained with anti-β1-ECII IgG antibodies in the absence of blocking peptides (black (1)). The y-axis represents the normalized YFP/CFP-ratio of the registered FRET emission signals, the x-axis corresponds to the registration time given in seconds (s).
# The blocking capacity of β1-ECII 25AA or 18AA cyclopeptide mutants (having a D-Glu/Gln at the ring closure site or not) on β1-receptor-mediated signalling (functional cAMP-assay) was assayed using an approach by fluorescence resonance energy transfer (FRET) (FIG. 6).
# The effect of the pre-incubation (12 h, 4° C., rotating incubator) of anti-β1-ECII IgG antibodies of a representative rat with β1-ECII-18AA cyclopeptide mutants (Cys/Ser or Ser/Cys mutations, respectively) was compared with the inhibitory effect of a 3 Cys-containing 25AA Cys/Cys cyclopeptide or with the effect of anti-β1-ECII IgG antibodies not incubated with blocking peptides. The normalized YFP/CFP-ratio of the registered FRET emission signals served to quantify the effect of the cyclopeptide mutants of the present invention in terms of blockade (in percent) of antibody-induced cellular cAMP-production of transiently Epac1-transfected stably β1-AR expressing human embryonic kidney cells (HEK 293-β1 cells). The x-axis in FIG. 6 corresponds to the registration time given in seconds (s).
Substance,blocking capacity (% of blocked versus non-blocked ELISA-reactivity) (anti-β1-ECII antibodies; 4° C.) [%],"blocking-efficiency versus unblocked sera (anti-β1-ECII antibodies; n=6 sera, incubation 12-14 h, 4° C., mean ±SEM (FIG. 27)) [%]",blocking efficiency (% of blocked versus non-blocked ELISA reactivity) (anti-β1-ECII antibodies) [%],blocking capacity (% of blocked versus non-blocked ELISA reactivity) (anti-β1-ECII antibodies) [%],"antibody-titer decrease after 5 injections, compared with untreated immunized animals [1] [%]",number of specific anti-beta1-ECII antibody-secreting cells (ASC) in spleen and bone marrow [2],decrease in circulating free anti-beta1-ECII antibodies (anti-β1-ECII antibodies; 8-fold molar excess of peptide) [%],decrease in circulating free anti-beta1-ECII antibodies (anti-β1-ECII antibodies; 20-fold molar excess of peptide) [%],decrease in circulating free anti-beta1-ECII antibodies (anti-β1-ECII antibodies; 80-fold molar excess of peptide),inhibition of functional antibody-effects (blocking intracellular cAMP-increases) [3],blocking effect compared with the 3 Cys-containing β1-ECII-18AA Cys/Cys cyclopeptide (anti-β1-ECII antibodies; IgG-fractions from 12 rats (FIG. 4)),ability to significantly block antibody-binding to the β1-ECII-antigen (anti-β1-ECII antibodies),"blocking of receptor antibodies versus Ser/Cys counterpart or linear 25AA Cys/Cys peptide (anti-β1-ECII antibodies; dose-titration, two to eight-fold molar excess, one representative serum (FIG. 5))",fraction of rat sera blocked by the peptide (anti-β1-ECII antibodies; listed as ECII-18AA Cys/Ser mutant) [%],fraction of rat sera blocked by the peptide (anti-β1-ECII antibodies; listed as β1-ECII-18AA Cys/Ser mutated cyclopeptide (D-Glu ring closure)),fraction of rat sera blocked by the peptide (anti-β1-ECII antibodies; listed as 18AA Ser/Cys-mutants),fraction of rat sera blocked by the peptide (anti-β1-ECII antibodies; listed as cyclic ECII-18AA Ser/Cys mutants) [%]
25AA Cys/Cys cyclopeptides: 3 Cys-containing β1-ECII-25AA Cys/Cys cyclopeptide (β1-ECII-CP of WO 2006/103101) (cyclo(ARAESDEARRCYNDPKCCDFVTNRQ); disulfide (positions not given here)) [reference compound],67±2,73.4±5.0,65±2,72±5,87.7±2,significant decrease,–,–,–,–,–,–,–,–,–,–,–
"Ala-Asp-Glu-Ala-Arg-Arg-Cys-Tyr-Asn-Asp-Pro-Lys-Cys-Ser-Asp-Phe-Val-Gln (cyclo(ADEARRCYNDPKCSDFVQ); disulfide 7-13 (inferred)) [linear 18AA Cys/Ser peptides, reference compound]",–,–,–,–,4.5±11,no effect,24,35,about 50%,–,–,–,–,–,–,–,–
cyclo(Ala-Arg-Ala-Glu-Ser-Asp-Glu-Ala-Arg-Arg-Cys-Tyr-Asn-Asp-Pro-Lys-Ser-Cys-Asp-Phe-Val-Thr-Asn-Arg-Gln) (cyclo(ARAESDEARRCYNDPKSCDFVTNRQ); disulfide 11-18 (inferred)) [25AA Ser/Cys],6±2,–,6±2,37±7,–,–,–,–,–,almost no inhibitory effect,–,–,–,–,–,–,–
cyclo(Ala-Asp-Glu-Ala-Arg-Arg-Cys-Tyr-Asn-Asp-Pro-Lys-Cys-Ser-Asp-Phe-Val-DGlu) (cyclo(ADEARRCYNDPKCSDFV[dE]); disulfide 7-13 (inferred)),69±2,–,69±2,47±5,–,–,–,–,–,"largely superior to its Ser/Cys counterpart, and even slightly more effective than a 3 Cys-containing 25AA Cys/Cys cyclopeptide",comparable or (in more than half of the sera analyzed n=8/12) was even more effective,able to significantly block,consistently largely superior,> 95,About 95%,–,–
cyclo(Ala-Asp-Glu-Ala-Arg-Arg-Cys-Tyr-Asn-Asp-Pro-Lys-Ser-Cys-Asp-Phe-Val-DGlu) (cyclo(ADEARRCYNDPKSCDFV[dE]); disulfide 7-14 (inferred)) [18AA Ser/Cys with D-Glu-closure],1±2,–,1±2,33±5,–,–,–,–,–,almost no inhibitory effect,–,not,–,–,–,about 5%,< 5
